Measured values: patent US7601717B2, “Pterin analogs” (BioMarin Pharmaceutical Inc., priority 2008, dated 2009)
Counter-ions that a name gives are not always drawn.

What was measured:
eNOS = eNOS (Homo sapiens, UniProt P29474); test: Cell-free eNOS activity assay reconstituted from purified components; assay type: biochemical; settings: 1, 10, 100 μM, 90 minutes at 37° C., nitrite by DAN fluorescence
Description: Also tested was the effect of BH4 analogs compared to free BH4 on stimulation of eNOS activity in a cell-free assay system reconstituted from purified components. 90 μL of reaction mixture (25 mM Tris-HCL, pH7.4, 1 μM FAD, 1 μM FMN, 100 μM L-Arginine, 2.5 mM CaCl2, 1 mM NADPH, 0.04 mg/ml Calmodulin) was mixed with 5 μl of eNOS (15 units/ml) and 5 μl of BH4 or BH4 analogs (1, 10, 100 μM), followed by incubation in a 37° C. water bath for 90 minutes. Then 100 μl of water and 20 μl of the nitrite fluorescent probe DAN (2,3-diaminonaphthalene, 316 μM) were added to each reaction and incubated at room temperature for 10 minutes. The dye DAN reacts with nitrite to yield the fluorescent product naphthotriazole. The reaction was then stopped by adding 10 μl of NaOH (2.8 M), and the fluorescence of the samples was read using excitation frequency 375 nm and emission frequency 415 nm.

[1] = test system: human umbilical vein endothelial cells (HUVEC); test: Nitric oxide production (nitrite+nitrate) in NAS-treated HUVEC; assay type: cell-based; settings: for NO production (nitrite+nitrate): 5-22 hours treatment; for effect (response) relative to that of free BH4: 5 to 22 hours exposure
Description: Cultured human umbilical vein endothelial cells (HUVEC) were pretreated with 3 mM N-acetylserotonin (NAS), an inhibitor of the enzyme sepiapterin reductase. Inhibition of this pathway typically results in loss of endogenous BH4, depressing the endogenous eNOS activity far below normal and provides an assay to test for restoration of eNOS activity.
Thus, subconfluent HUVECs were seeded in a 24-well plate and grown overnight in EGM2 medium (full growth medium). The next morning, fresh medium was added to the cells (300 μL/well), 3 mM N-acetylserotonin (NAS), an inhibitor of the enzyme sepiapterin reductase (a member of the synthesis pathway for endogenous BH4) was added to the cells to decrease the endogenous BH4 levels. After an incubation of 1.5 hours, 50, 100, or […] BH4 or compound of Example 5, Example 6, Example 7, or Example 9 were added to the cells. The cells were allowed to react with the BH4 or the compound of Example 5, Example 7, or Example 9 for 5-22 hours. The production of NO was then measured as changes in total (nitrite+nitrate) by the Griess reaction subsequent to nitrate reductase treatment. 90 μL of reaction mixture (25 mM Tris-HCL, pH7.4, 1 μM FAD, 1 μM FMN, 100 μM L-Arginin 2.5 mM CaCl2, 1 mM NADPH, 0.04 mg/ml Calmodulin) was mixed with 5 μl of eNOS (15 units/ml) and 5 μl of BH4 or BH4 analogs (1, 10, 100 μM), followed by incubation in a 37° C. water bath for 90 minutes. Then 100 μl of water and 20 μl of the nitrite fluorescent probe DAN (2,3-diaminonaphthalene, 316 μM) were added to each reaction and incubated at room temperature for 10 minutes. The dye DAN reacts with nitrite to yield the fluorescent product naphthotriazole. The reaction was then stopped by adding 10 μl of NaOH (2.8 M), and the fluorescence of the samples was read using excitation frequency 375 nm and emission frequency 415 nm. The percentage of nitrite+nitrate with BH4 or compound of Example 5, Example 7, or Example 9 is shown in FIG. 17 (after 5 hours); FIG. 18 (after 17 hours); and FIG. 19 (after 22 hours). The results for Example 6 are shown in FIG. 20 (after 5 hours) and FIG. 21 (after 20 hours).

[2] = Stability in simulated gastric fluid; assay type: in vitro ADME; settings: over a 60 minute period, compound remaining
Description: (§1) The stability of various compounds as disclosed herein was tested in human and rat and in simulated gastric fluid. Each compound was tested over an hour period for concentration of the compound remaining at each time point. The results are shown in FIGS. 3 (human plasma stability), 4 (rat plasma stability), and 5 (simulated gastric fluid stability) for the compounds of Example 2, 3, 4, and 20.

[3] = Stability in human plasma; assay type: in vitro ADME; settings: over a 60 minute period, compound remaining
Description: as §1

Stability in rat plasma = assay type: in vitro ADME; settings: over a 60 minute period, compound remaining
Description: as §1

[4] = test system: Spontaneously Hypertensive rats (SHR); test: Anti-hypertensive effect, tail-cuff systolic blood pressure in SHR; assay type: in vivo, rat
Description: This study was to determine if the BH4 analogs have a similar hypotensive effect and to determine the steady state pharmacokinetics (PK) profiles of plasma BH4 concentrations.
Male Wistar-Kyoto (WKY) rats and SHR rats (Elevage Janvier, France, 7 weeks old) were housed seven days prior to the beginning of experiments with free access to standard chow and water and maintained on an inversed 12 h dark/light cycle (10:00/22:00). After a one week acclimation period, the animals were trained to the tail-cuff system during one week (3 sessions). The following week, two baseline measurements of blood pressure were performed.
The rats (10 weeks old) then received respective treatments of water, vehicle, 2, 10, or 30 mg/kg/day of BH4 analog (Example 5, Val-BH4) or 100 mg/kg/day BH4 by oral gavage (8 mL/kg, dissolved in 100 μM ascorbic acid) performed once a day during 21 days of treatment. The doses of BH4 analog were prepared as mg/kg equivalents of BH4 (calculated using BH4 and BH4 analog 2HCl molecular weights). Body weight was monitored 3 times per week and the most recent body weight was used to adjust drug and vehicle daily intake. Seven experimental groups of rats were evaluated: Group 1—normotensive WKY rats and water gavage; Group 2—hypertensive SHR rats and water gavage; Group 3—hypertensive SHR rats and vehicle gavage; Group 4—hypertensive SHR rats and BH4 100 mg/kg/day gavage; Group 5—hypertensive SHR rats and BH4 analog 2 mg/kg/day gavage; Group 6—hypertensive SHR rats and BH4 analog 10 mg/kg/day gavage; Group 7—hypertensive SHR rats and 30 mg/kg/day BH4 analog gavage. To account for animal loss or animal disqualification during experimental handling, 10 rats were used in each group, with the expectation to obtain interpretable results for at least 8. Systolic blood pressure (SBP) and heart rate (HR) were measured twice weekly during the 3-week treatment period.
Systolic blood pressure (SBP) and heart rate (HR) were measured using the tail-cuff method, twice before the beginning of the treatment and twice weekly during the 3 week treatment period (6 measurements during the treatment period). Rats were placed in a plastic restraint and warmed to […]. A pneumatic pulse sensor was attached to the tail. After cuff inflation, SBP was measured and HR was determined by counting pulse numbers per minute. Data for each rat was taken an average of at least 4 stable readings. At least 10 cuff inflations were performed for each BP measurement.

[5] = Pharmacokinetics and bioavailability, single intravenous or oral doses, partial Latin square crossover; assay type: in vivo, male cynomolgus monkeys; settings: oral 40 mg/kg, n=6
Description: This study was to determine the pharmacokinetics and relative bioavailability of BH4 when given as parent BH4 or an analog of BH4 to male cynomolgus monkeys as single intravenous or oral doses in a partial Latin square crossover design.
Six, male, non-naïve cynomolgus monkeys were fasted overnight prior to dosing through approximately 4 hours postdose. Individual doses were calculated based on body weights recorded on each day of dose administration. Five experimental groups of monkeys were evaluated using a partial Latin square crossover design: Group 1-2 mg/kg BH4 by IV; Group 2-40 mg/kg BH4 by oral gavage; Group 3-2 mg/kg BH4 analog by IV; Group 4-5 mg/kg BH4 analog by oral gavage; Group 5-20 mg/kg BH4 analog by oral gavage. The doses of BH4 analog were prepared as mg/kg equivalents of BH4 (calculated using BH4 and BH4 analog 2HCl molecular weights). The partial Latin square crossover design was used to minimize dose sequence effect on interanimal variability for statistical purposes. The monkeys received their respective dose of BH4 intravenously (2 mL/kg, dissolved in 100 μM ascorbic acid and 5% mannitol in sterile water for injection, SWFI), Example 5 intravenously (2 mL/kg, dissolved in 100 μM ascorbic acid and 5% mannitol in citrate buffer, pH 3) or BH4 or Example 5 by oral gavage (4 mL/kg, dissolved in 100 μM ascorbic acid in SWFI). Prior to use, all intravenous dose formulations were filtered into the final dosing container using a 0.22-micron syringe filter (Millex GS or GV; Millipore).
For intravenous administration, blood (approximately 1 mL) was collected from each animal predose and at 0.083, 0.25, 0.5, 1, 2, 3, 4, 6, 8, 12, 18, and 24 hours postdose. For oral administration, blood (approximately 1 mL) was collected from each animal predose and at 0.25, 0.5, 1, 2, 3, 4, 6, 8, 12, 18, and 24 hours postdose. Blood was collected into tubes containing K2-EDTA anticoagulant, which was maintained in chilled condition, and centrifuged to obtain plasma. Centrifugation began within 30 minutes of collection. Three, 100-μL aliquots of each plasma sample were promptly transferred following centrifugation into individual tubes containing 0.1% (w/v) dithioerythritol (DTE) for storage. Once the plasma aliquot was added, each tube was vortexed briefly to mix then immediately placed on dry ice.

[6] = as above; assay type: in vivo, male cynomolgus monkeys; settings: male, cynomolgus monkey, plasma; intravenous; title 5 mg/kg, text 2 mg/kg; n=6
[7] = male, cynomolgus monkey, plasma

stability in simulated gastric fluid [2]	stability in human plasma [3]	stability in rat plasma (Stability in rat plasma)	Structure (SMILES)	potentiation of eNOS activity (eNOS)	NO production (nitrite+nitrate) [1]	effect (response) relative to that of free BH4 [1]	also measured
–	–	–	C[C@H](OC(=O)[C@@H]1CCCN1)[C@H](O)[C@H]1CNc2nc(N)[nH]c(=O)c2N1 [Example 9, Pyrrolidine-2-carboxylic acid 2-(2-amino-4-oxo-3,4,5,6,7,8-hexahydro-pteridin-6-yl)-2-hydroxy-1-methyl-ethyl ester dihydrochloride]	slight effect on eNOS activity	increased NO production in a dose-dependent manner	similar, if slightly reduced, effect	–
high level of stability	high level of stability	high level of stability	C[C@H](O)[C@H](O)[C@H]1CNc2nc(N)[nH]c(=O)c2N1C(=O)OCc1ccccc1 (stereo in doubt) [Example 20, 2-Amino-6-(1,2-dihydroxy-propyl)-4-oxo-4,6,7,8-tetrahydro-1H-pteridine-5-carboxylic acid benzyl ester]	–	–	–	–
–	–	–	C[C@H](O)[C@H](O)[C@H]1CNc2nc(N)[nH]c(=O)c2N1 [BH4, Tetrahydrobiopterin, reference compound]	did potentiate eNOS activity in a dose-dependent manner	–	–	lowering of systolic blood pressure (SBP) ([4]; SHR, 100 mg/kg/day oral gavage, after 3 weeks, vs vehicle): about 8.4 mmHg; blood pressure of SHR ([4]; previous studies, 10, 100, and 500 mg/kg/day, two weeks of oral administration): reduced the blood pressure; bioavailability ([5]; male, cynomolgus monkey, plasma, po, 40 mg/kg, based on 6R-BH4 IV, read-out: Absolute Bioavailability, BH4): 9.8%; AUC(0-inf) [5, 7]: 13.4 µM·h; AUC(0-t) [5, 7]: 11.9 µM·h; Cmax [5, 7]: 2.33 µM; Tmax [5, 7]: 3.7 h; half-life [5, 7]: 5.9 h; Absolute Bioavailability, BH4 ([5]; based on 6R-BH4 IV, 40 mg/kg): 9.2 (4.2) %; AUC(0-inf) [6]: 6.96 µM·h; AUC(0-t) [6]: 6.76 µM·h; Cmax [6]: 7.05 µM; Tmax [6]: 6.6 min
–	–	–	C[C@@H](O)[C@@H](O)[C@H]1CNc2nc(N)[nH]c(=O)c2N1 [Example 6S-BH4, reference compound]	did not significantly potentiate eNOS activity	–	–	–
–	–	–	C[C@H](OC(=O)[C@@H](N)CCCCN)[C@H](O)[C@H]1CNc2nc(N)[nH]c(=O)c2N1 [Example 7, 2,6-Diamino-hexanoic acid 2-(2-amino-4-oxo-3,4,5,6,7,8-hexahydro-pteridin-6-yl)-2-hydroxy-1-methyl-ethyl ester tri-hydrochloride]	slight effect on eNOS activity	increased NO production in a dose-dependent manner	similar, if slightly reduced, effect	–
–	–	–	CCC(C)[C@H](N)C(=O)O[C@@H](C)[C@H](O)[C@H]1CNc2nc(N)[nH]c(=O)c2N1 (stereo in doubt) [Example 6, 2-Amino-3-methyl-pentanoic acid 2-(2-amino-4-oxo-3,4,5,6,7,8-hexahydro-pteridin-6-yl)-2-hydroxy-1-methyl-ethyl ester]	–	increased NO production in a dose-dependent manner	similar, if slightly reduced, effect	–
high level of stability	high level of stability	high level of stability	CCC(=O)O[C@@H]([C@H](C)OC(=O)CC)[C@H]1CNc2nc(N)[nH]c(=O)c2N1C(=O)CC [Example 3, Propionic acid 1-(2-amino-4-oxo-5-propionyl-3,4,5,6,7,8-hexahydro-pteridin-6-yl)-2-Propionyloxy-propyl ester]	–	–	–	–
high level of stability	high level of stability	high level of stability	CCCC(=O)O[C@@H]([C@H](C)OC(=O)CCC)[C@H]1CNc2nc(N)[nH]c(=O)c2N1C(=O)CCC [Example 4, Butyric acid 1-(2-amino-5-butyryl-4-oxo-3,4,5,6,7,8-hexahydro-pteridin-6-yl)-2-butyryloxy-propyl ester]	–	–	–	–
